Data published in patent publication US11578095B2, “Compositions and methods for synthesizing 5'-Capped RNAs” (TriLink Biotechnologies, LLC, priority 2015, dated 2023).

Key:
[1] = target: T7 RNAP (Escherichia phage T7, UniProt P00573); conditions: transcription initiation; read-out: Kd for the first initiating NTP; cited from earlier work
[2] = system: THP-1 cells; experiment: Translation of luciferase mRNAs in differentiated THP-1 cells; type: cell-based; conditions: 100 ng mRNA per well
Procedure: In order to assess the expression of luciferase mRNAs generated in Examples 14 and 15, mRNAs were transfected into THP-1 cells (ATCC, Catalog #TIB-202) with six replicates. THP-1 cells were cultured in ATCC formulated RPMI-1640 (ATCC, Catalog #30-2001) supplemented with 10% FBS, sodium pyruvate and penicillin/streptomycin at 37° C. under an atmosphere of 5% CO2. Cells were seeded at 2E+05 cells per well in a 24-well plate format in the presence of the phorbol ester 12-O-Tetradecanoylphorbol-13-acetate (TPA; Cell Signaling Technologies, Catalog #4174) to induce differentiation. Cells were transfected with 100 ng of mRNA per well 72 hours after seeding. For comparison, cells were also transfected with a Cap0 luciferase mRNA generated by initiation with ARCA. At 20 hours post-transfection, cells were harvested and luciferase activity was measured using a ONE-Glo Luciferase Assay System kit (Promega Catalog #E6120) according to the manufacturer's recommendations. Luminescence was measured using a GloMax-Multi+Detection System instrument according to the manufacturer's recommendations. Data were graphed as the mean of six replicates +/−the standard deviation from the mean. Data were analyzed using the Unpaired t-test to generate p values as a measure of significance. […] In FIG. 14B, we also assessed the activity of an mRNA that was made with the “TC” Template and capped with ARCA (Cap 0). […]

[3] = target: T1, T7 RNA polymerase (Escherichia phage T7, UniProt P00573); type: biochemical, T7 bacteriophage; conditions: Primer/NTP Formulation 1: 6 mM primer, 1.5 mM GTP, 7.5 mM each ATP, CTP, UTP; capped peaks/(capped + 5′ OH peak)
T1 construct: purchased New England Biolabs M0251
Procedure: A double stranded DNA transcription template encoding firefly luciferase was generated by polymerase chain reaction. The +1 template nucleotide was 2′-deoxycytidine. Transcription reactions were assembled with 25 ug/mL transcription template, 40 mM Tris-HCl (pH 8.0), 27 mM MgCl2, 2 mM spermidine, 10 mM DTT, 0.002% Triton X-100, 1000 unit/mL murine RNase inhibitor (New England Biolabs catalog #M0314), 2 unit/mL inorganic pyrophosphatase (New England Biolabs catalog #M2403), 4000 units/mL T7 RNA polymerase (New England Biolabs catalog #M0251), 6 mM ARCA (^m7G3′OmepppGG), 1.5 mM GTP, 7.5 mM ATP, 7.5 mM CTP and 7.5 mM UTP. Transcriptions were incubated at 37° C. for 2 hours. Reactions were supplemented with 10 mM Tris-HCl (pH 7.6), 2.5 mM MgCl2, 0.5 mM CaCl2 and 100 units/mL DNase I (New England Biolabs catalog #M0303) and incubated for 1 hour at 37° C. The resulting mRNAs were purified using an RNeasy Maxi kit (Qiagen catalog #75162) according to manufacturer's instructions. mRNAs were eluted in water and dephosphorylated by adjusting the solution to 50 mM Bis-Tris-Propane HCl (pH 6.0), 1 mM MgCl2, 0.1 mM ZnCl2 and 250 units/mg Antarctic phosphatase (New England Biolabs catalog #M0289). The reaction were incubated at 37° C. for 1 hour. The resulting mRNAs were purified using an RNeasy Maxi kit (Qiagen catalog #75162) according to manufacturer's instructions. mRNAs were eluted in water.
A double stranded firefly luciferase DNA transcription template specific for each trimer is generated by polymerase chain reaction. These templates differed in template nucleotides +1 and +2. For a given trimer, template nucleotide +1 was complementary to B1 (the nucleotide destined to become transcript nucleotide +1). Likewise template nucleotide +2 was complementary to […] (the nucleotide destined to become transcript nucleotide +2; see Example 10)). Transcription reactions are assembled with 25 ug/mL transcription template, 40 mM Tris-HCl (pH 8.0), 27 mM MgCl2, 2 mM spermidine, 10 mM DTT, 0.002% Triton X-100, 1000 unit/mL murine RNase inhibitor (New England Biolabs catalog #M0314), 2 unit/mL inorganic pyrophosphatase (New England Biolabs catalog #M2403), 4000 units/mL T7 RNA polymerase (New England Biolabs catalog #M0251) and 6 mM of initiating capped oligonucleotide primer, 1.5 mM GTP and 7.5 mM each of ATP, CTP and UTP. In subsequent examples, this primer/NTP formulation will be referred to as Primer/NTP Formulation 1. It is clear to one skilled in the art that other polymerases such as T7, T3 or SP6 RNA polymerases could be used instead of T7 RNA polymerase to perform the same function by using their respective promoters. Transcription reaction mixtures are incubated at 37° C. for 2 hours. Reactions are supplemented with 10 mM Tris-HCl (pH 7.6), 2.5 mM MgCl2, 0.5 mM CaCl2 and 100 units/mL DNase I (New England Biolabs catalog #M0303) and incubated for 1 hour at 37° C. The resulting mRNAs are purified using an RNeasy Maxi kit (Qiagen catalog #75162) according to manufacturer's instructions. mRNAs are eluted in water and dephosphorylated by adjusting the solution to 50 mM Bis-Tris-Propane HCl (pH 6.0), 1 mM MgCl2, 0.1 mM ZnCl2 and 250 units/mg Antarctic phosphatase (New England Biolabs catalog #M0289). The reaction is incubated at 37° C. for 1 hour. The resulting mRNAs are purified using an RNeasy Maxi kit (Qiagen catalog #75162) according to manufacturer's instructions. mRNAs are eluted in water.
Initiating capped oligonucleotide primer ^7mG3′OmepppA2′OmepG2′OmepG were used in transcription. Transcription were carried out as in Example 11 with the following modifications. A double stranded DNA transcription template specific for tetramer was generated by polymerase chain reaction. The template nucleotide +1 (2′-deoxythymidine) was complementary to Adenosine (the first nucleotide of the primer destined to become a transcript nucleotide +1).

[4] = excess of ^7mGpppG over pppG from 4:1 to 10:1; cited from earlier work
[5] = target: T1, T7 RNA polymerase; experiment: Capping assay (LC-MS) of mRNA made with ^m7GpppA2′OmepG on "TC" vs "CC" transcription template; type: biochemical, T7 bacteriophage
Procedure: (§1) A double stranded firefly luciferase DNA transcription template was used with 2′-deoxythymidine and 2′-deoxycytidine residues at template positions +1 and +2, respectively. Two transcription reactions were assembled with 25 ug/mL transcription template, 40 mM Tris-HCl (pH 8.0), 27 mM MgCl2, 2 mM spermidine, 10 mM DTT, 0.002% Triton X-100, 1000 unit/mL murine RNase inhibitor (New England Biolabs catalog #M0314), 2 unit/mL inorganic pyrophosphatase (New England Biolabs catalog #M2403), 4000 units/mL T7 RNA polymerase (New England Biolabs catalog #M0251). The two transcriptions differed in the amount of initiating capped oligonucleotide, amount of NTPs and the identity of NTPs. The first transcription was designed to mimic the transcription conditions of Ishikawa et al. (Nucleic Acids Symposium Series No. 53:129 (2009)). This transcription reaction contained 6 mM of ^m7GpppA2′OmepG initiating capped oligonucleotide primer, 0.9 mM GTP and 7.5 mM of ATP, CTP and UTP. In subsequent examples this primer/NTP formulation will be referred to as Primer/NTP Formulation 2. In this formulation, the initiating oligonucleotide primer was in greater than 6 fold excess over GTP. The second transcription used 5 mM of ^m7GpppA2′OmepG initiating capped oligonucleotide primer, 5 mM GTP, ATP, CTP and pseudouridine triphosphate […]. In subsequent examples this primer/NTP formulation will be referred to as Primer/NTP Formulation 3. In Primer/NTP Formulation 3, the GTP concentration was increased in order to produce commercially useful amounts of RNA. It is clear to one skilled in the art that other polymerases such as T7, T3 or SP6 RNA polymerases could be used instead of T7 RNA polymerase to perform the same function by using their respective promoters. Transcription reaction mixtures are incubated at 37° C. for 2 hours. Reactions were supplemented with 10 mM Tris-HCl (pH 7.6), 2.5 mM MgCl2, 0.5 mM CaCl2 and 100 units/mL DNase I (New England Biolabs catalog #M0303) and incubated for 1 hour at 37° C. The resulting mRNAs were purified using an RNeasy Maxi kit (Qiagen catalog #75162) according to manufacturer's instructions. mRNAs were eluted in water and dephosphorylated by adjusting the solution to 50 mM Bis-Tris-Propane HCl (pH 6.0), 1 mM MgCl2, 0.1 mM ZnCl2 and 250 units/mg Antarctic phosphatase (New England Biolabs catalog #M0289). The reaction was incubated at 37° C. for 1 hour for Primer/NTP Formulation 2 and 3 hours for Primer/NTP Formulation 3 hour. The resulting mRNAs were purified using an RNeasy Maxi kit (Qiagen catalog #75162) according to manufacturer's instructions. mRNAs were eluted in water. The purified transcription yields with Primer/NTP Formulation 2 and 3 were 0.7 milligram/milliliter transcription reaction (mg/mL) and 3.9 mg/mL transcription reaction, respectively.
A double stranded firefly luciferase DNA transcription template was used in which the +1 and +2 template nucleotides were cytidines and thus not completely complementary to the ^m7GpppA2′OmepG initiating capped oligonucleotide primer. Two transcription reactions were assembled with 25 ug/mL transcription template, 40 mM Tris-HCl (pH 8.0), 27 mM MgCl2, 2 mM spermidine, 10 mM DTT, 0.002% Triton X-100, 1000 unit/mL murine RNase inhibitor (New England Biolabs catalog #M0314), 2 unit/mL inorganic pyrophosphatase (New England Biolabs catalog #M2403), 4000 units/mL T7 RNA polymerase (New England Biolabs catalog #M0251). The two transcriptions differed in the amount of initiating capped oligonucleotide and NTPs. The first transcription was designed to mimic the transcription conditions of Ishikawa et al. (Nucleic Acids Symposium Series No. 53: 129 (2009)). This transcription reaction contained Primer/NTP Formulation 2. The second transcription used Primer/NTP Formulation 3. It is clear to one skilled in the art that other polymerases such as T7, T3 or SP6 RNA polymerases could be used instead of T7 RNA polymerase to perform the same function by using their respective promoters. […]

[6] = target: T1, T7 RNA polymerase; experiment: In vitro transcription of firefly luciferase template, purified transcription yield; type: biochemical, T7 bacteriophage
Procedure: as §1, with “reaction, respectively. […]” for “reaction, respectively.”

T1 sequence (P00573 whole entry): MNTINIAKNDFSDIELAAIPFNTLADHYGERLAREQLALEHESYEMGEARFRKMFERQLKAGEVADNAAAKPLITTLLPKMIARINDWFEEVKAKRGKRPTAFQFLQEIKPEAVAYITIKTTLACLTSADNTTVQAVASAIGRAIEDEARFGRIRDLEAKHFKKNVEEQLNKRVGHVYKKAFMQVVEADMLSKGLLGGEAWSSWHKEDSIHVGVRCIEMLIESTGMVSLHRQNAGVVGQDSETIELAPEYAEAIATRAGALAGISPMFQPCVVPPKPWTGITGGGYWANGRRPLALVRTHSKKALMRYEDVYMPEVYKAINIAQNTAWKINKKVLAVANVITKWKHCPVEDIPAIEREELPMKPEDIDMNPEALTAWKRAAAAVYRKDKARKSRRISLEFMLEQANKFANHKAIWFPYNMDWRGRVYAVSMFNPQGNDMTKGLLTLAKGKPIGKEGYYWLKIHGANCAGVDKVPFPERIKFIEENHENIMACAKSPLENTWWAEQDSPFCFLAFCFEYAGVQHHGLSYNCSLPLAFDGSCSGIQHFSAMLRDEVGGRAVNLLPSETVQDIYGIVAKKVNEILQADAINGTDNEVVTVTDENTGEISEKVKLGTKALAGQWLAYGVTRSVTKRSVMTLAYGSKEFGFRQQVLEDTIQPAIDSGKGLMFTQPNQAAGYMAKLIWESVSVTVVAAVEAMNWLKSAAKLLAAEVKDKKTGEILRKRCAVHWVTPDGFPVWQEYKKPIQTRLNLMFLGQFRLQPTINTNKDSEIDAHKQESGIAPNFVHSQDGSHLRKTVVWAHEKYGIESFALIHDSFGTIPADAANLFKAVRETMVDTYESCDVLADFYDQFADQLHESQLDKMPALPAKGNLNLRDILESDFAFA
Sequence of T7 RNAP (P00573 whole entry): as above

Compound: Nc1nc2c(ncn2[C@@H]2O[C@H](COP(=O)(O)OP(=O)(O)OP(=O)(O)O)[C@@H](O)[C@H]2O)c(=O)[nH]1 [GTP, guanosine triphosphate]
- Kd [1]: 2 mM

Compound: ^7mG(3′-O-Me)pppG [^m7G3′OmepppG, reference compound]
- luciferase activity relative to transcripts made with ^m7GpppA2′OmepG on "TC" template ([2]; "TC" template, 20 hours post-transfection (FIG. 14B)): significantly less activity
- observed % capping (capping efficiency) [3]: 79%

Compound: ^7mG(5′)ppp(5′)G [^7mGpppG]
- 5′-Cap structure mRNA transcripts [4]: 80-90%

Compound: ^m7G3′OmepppA2′OmepG
- observed % capping (capping efficiency) [3]: 99%

Compound: ^m7G3′OmepppC2′OmepG
- observed % capping (capping efficiency) [3]: 97%

Compound: ^m7G3′OmepppG2′OmepG
- observed % capping (capping efficiency) [3]: 87%

Compound: ^m7GpppA2′OmepG
- translation (luciferase activity), "TC" template vs "CC" template ([2]; 20 hours post-transfection, Primer/NTP Formulations 2 and 3 (FIG. 14A, 14B)): significantly superior
- observed % capping (capping efficiency) [3]: 99%
- fidelity of templated transcription initiation ([5]; template +1/+2 2′-deoxythymidine/2′-deoxycytidine, Formulations 2 and 3 (FIGS. 13A, 13B)): Only minor aberrant initiation products were detected
- capping efficiency ([5]; template +1/+2 2′-deoxythymidine/2′-deoxycytidine, Primer/NTP Formulation 2 (FIG. 13A)): 99%
- capping efficiency ([5]; template +1/+2 2′-deoxythymidine/2′-deoxycytidine, Primer/NTP Formulation 3 (FIG. 13B)): 96%
- fidelity of templated transcription initiation ([5]; template +1/+2 cytidine, Formulations 2 and 3 (FIGS. 13C, 13D)): initiated in two registers
- calculated capping efficiency (Cap 1+A and Cap 1 GtoA) ([5]; template +1/+2 cytidine, Primer/NTP Formulation 2 (FIG. 13C)): 97%
- calculated capping efficiency (Cap 1+A and Cap 1 GtoA) ([5]; template +1/+2 cytidine, Primer/NTP Formulation 3 (FIG. 13D)): 77%
- purified transcription yield ([6]; template +1/+2 2′-deoxythymidine/2′-deoxycytidine, Primer/NTP Formulation 2): 0.7 mg/mL
- purified transcription yield ([6]; template +1/+2 2′-deoxythymidine/2′-deoxycytidine, Primer/NTP Formulation 3): 3.9 mg/mL
- purified transcription yield ([6]; template +1/+2 cytidines, Primer/NTP Formulation 2): 0.6 mg/mL
- purified transcription yield ([6]; template +1/+2 cytidines, Primer/NTP Formulation 3): 3.9 mg/mL

Compound: ^m7GpppA2′OmepG2′OmepG
- observed % capping (capping efficiency) [3]: 50%

Compound: ^m7GpppC2′OmepG
- observed % capping (capping efficiency) [3]: 98%

Compound: ^m7GpppG2′OmepG
- observed % capping (capping efficiency) [3]: 89%
